The values that follow are results of earlier work, collected in publication PMC3962266 (Journal of medicinal chemistry, 2013).

Experiment in data set [1]: not given
This is another data set of the same source.

Experiment in data set [2]: not given
This is another data set of the same source.

As to `COC(=O)[C@H](c1ccccc1Cl)N1CCc2sccc2C1` [clopidogrel], the “Further increase of bleeding risk on addition as combination therapy” value (added to aspirin) is 1%.

For `CCCCNc1ncc2c(-c3ccc(S(=O)(=O)N4CCOCC4)cc3)nn(C3CCC(O)CC3)c2n1` (stereo not shown) [UNC1062], the “Pharmacokinetic (PK) properties” value in data set [1] is recorded as “poor pharmacokinetic (PK) properties”. In addition, the Solubility result in data set [2] is reported as “low solubility”.

For the molecule `CC(=O)Oc1ccccc1C(=O)O` [aspirin], the “Baseline major bleeding risk (gastrointestinal or intracranial)” value is 1–4%.
